Data set [1] has as its system SARS-CoV-2. The following applies: human prostate cells; cited from earlier work.
The subject of data set [2] is SARS-CoV-2. The following applies: human lung cells; cited from earlier work.
The subject of data set [3] is SARS-CoV-2. As to conditions: cited from earlier work.
A further data set addresses CYP2C9 (Homo sapiens, UniProt P11712). In words: Fluorometric CYP2C9 activity assay in human liver microsomes. Format: in vitro ADME. The following applies: reference inhibitor at 60 µM, human hepatic microsomes. Background: Microsomes from liver hold many membrane-bound enzymes, among them those of drug oxidation.
In the next data set the target is T1, CYP1A2 (Homo sapiens, UniProt P05177).
T1 sequence (P05177 1-516): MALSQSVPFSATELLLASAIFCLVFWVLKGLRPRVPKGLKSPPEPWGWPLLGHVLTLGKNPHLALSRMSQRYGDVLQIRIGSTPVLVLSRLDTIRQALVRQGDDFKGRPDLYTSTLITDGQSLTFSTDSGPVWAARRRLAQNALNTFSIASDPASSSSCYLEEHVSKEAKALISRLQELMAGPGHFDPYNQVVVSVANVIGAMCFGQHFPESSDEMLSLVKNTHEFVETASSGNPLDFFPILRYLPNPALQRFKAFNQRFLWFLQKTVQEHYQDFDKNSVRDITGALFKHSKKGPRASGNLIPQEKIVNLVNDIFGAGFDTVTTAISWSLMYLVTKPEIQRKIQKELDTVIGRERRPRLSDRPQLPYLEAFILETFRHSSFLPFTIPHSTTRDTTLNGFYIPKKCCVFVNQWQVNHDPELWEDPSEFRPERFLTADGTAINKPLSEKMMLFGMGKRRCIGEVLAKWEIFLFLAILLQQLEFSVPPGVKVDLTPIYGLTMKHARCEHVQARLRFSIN
Put plainly: Fluorometric CYP1A2 activity assay in human liver microsomes. The following applies: reference inhibitor at 6 µM, human hepatic microsomes. Type of data set: in vitro ADME.

Counter-ions that a name gives are not always drawn. Like-named read-outs stand apart in the source and are kept apart here.

Sequence of CYP2C9 (P11712 whole entry): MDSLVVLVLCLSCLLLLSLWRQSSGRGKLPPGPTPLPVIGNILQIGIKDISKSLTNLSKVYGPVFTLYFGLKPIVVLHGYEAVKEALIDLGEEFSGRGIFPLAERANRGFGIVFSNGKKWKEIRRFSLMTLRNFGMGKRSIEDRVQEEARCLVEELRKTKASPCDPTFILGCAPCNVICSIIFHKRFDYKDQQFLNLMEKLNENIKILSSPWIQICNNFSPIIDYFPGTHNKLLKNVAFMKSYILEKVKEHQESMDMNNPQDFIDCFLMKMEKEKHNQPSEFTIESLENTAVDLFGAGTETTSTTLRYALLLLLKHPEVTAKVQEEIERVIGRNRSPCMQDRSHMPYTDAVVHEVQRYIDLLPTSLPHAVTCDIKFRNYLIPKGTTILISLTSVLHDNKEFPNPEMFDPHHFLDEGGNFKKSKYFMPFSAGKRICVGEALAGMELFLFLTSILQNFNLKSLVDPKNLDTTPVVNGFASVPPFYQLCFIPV

Take `CNC(=O)c1ccc(N2C(=S)N(c3ccc(C#N)c(C(F)(F)F)c3)C(=O)C2(C)C)cc1F` [enzalutamide]: the entries for the “SARS-CoV-2 infection” value in the data set on SARS-CoV-2 [1] and in the data set on SARS-CoV-2 [2] were “suppressed mainly in human prostate cells” and “not in human lung cells”, respectively.
Turning to `N=C(N)c1ccc2cc(OC(=O)c3ccc(N=C(N)N)cc3)ccc2c1` [nafamostat mesylate], in the data set on SARS-CoV-2 [3], the “S protein-mediated fusion and SARS-CoV-2 entry into Calu-3 cells” value is given as “could block successfully”.
With `O=C(O)COc1ccc(C(=O)c2cccs2)c(Cl)c1Cl` [tienilic acid], the “effect on CYP2C9 activity” value at CYP2C9 was “inhibited”.
Consider `O=c1cc(-c2ccccc2)oc2c1ccc1ccccc12` [α-naphthoflavone], for which the “effect on CYP1A2 activity” value on CYP1A2 is on record as “suppressed significantly”.
